Laboratory results reported in patent publication US6737383B1, “Herbicidal oxadiazolidines” (priority 1999, dated 2004).

Legend:
[1] = test system: cocklebur; experiment: Test B pre/postemergence cocklebur; format: in vivo, Xanthium strumarium
Summary of the method: (§1)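 Response is a visual 0-to-10 score relative to untreated plants, where 0 means no effect and 10 means complete control, taken twelve to sixteen days after application. Treatments went onto soil at planting and onto foliage of 1- to 4-leaf plants, using a surfactant-containing non-phytotoxic solvent.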

[2] = test system: blackgrass; experiment: Test B pre/postemergence blackgrass; format: in vivo, Alopecurus myosuroides
Summary of the method: as §1

[3] = test system: duck salad; experiment: Test B flood test duck salad; format: in vivo, Heteranthera limosa
Summary of the method: (§2)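 Plants were grown to the 2-leaf stage before treatment with test chemical, then held in a greenhouse for twelve to sixteen days. Injury was visually rated against untreated controls on a 0–10 scale, where 0 is no effect and 10 is complete control.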

[4] = test system: giant foxtail; experiment: Test B pre/postemergence giant foxtail; format: in vivo, Setaria faberii
Summary of the method: as §1

[5] = test system: bamyardgrass; experiment: Test B flood test barnyardgrass; format: in vivo, Echinochloa crus-galli
Summary of the method: as §2

[6] = test system: bedstraw; experiment: Test B pre/postemergence bedstraw; format: in vivo, Galium aparine
Summary of the method: as §1

[7] = test system: pigweed; experiment: Test B pre/postemergence pigweed; format: in vivo, Amaranthus retroflexus
Summary of the method: as §1

[8] = test system: velvetleaf; experiment: Test B pre/postemergence velvetleaf; format: in vivo, Abutilon theophrasti
Summary of the method: as §1

[9] = test system: smallflower flatsedge; experiment: Test B flood test smallflower flatsedge; format: in vivo, Cyperus difformis
Summary of the method: as §2

[10] = test system: surinam grass; experiment: Test B pre/postemergence surinam grass; format: in vivo, Brachiaria decumbens
Summary of the method: as §1

[11] = test system: purple nutsedge; experiment: Test B pre/postemergence purple nutsedge; format: in vivo, Cyperus rotundus
Summary of the method: as §1

[12] = test system: morningglory; experiment: Test B pre/postemergence morningglory; format: in vivo, Ipomoea hederacea
Summary of the method: as §1

[13] = test system: wild oat; experiment: Test B pre/postemergence wild oat; format: in vivo, Avena fatua
Summary of the method: as §1

[14] = test system: soybean; experiment: Test B pre/postemergence soybean; format: in vivo, Glycine max
Summary of the method: as §1

[15] = test system: rape; experiment: Test B pre/postemergence rape; format: in vivo, Brassica napus
Summary of the method: as §1

[16] = test system: wheat; experiment: Test B pre/postemergence wheat; format: in vivo, Triticum aestivum
Summary of the method: as §1

[17] = Postemergence, Rate 62 g/ha, scale 0 to 10, 0 is no effect, 10 is complete control
[18] = Postemergence, Rate 250 g/ha, scale 0 to 10, 0 no effect, 10 complete control
[19] = Preemergence, Rate 62 g/ha, scale 0 to 10, 0 is no effect, 10 is complete control
[20] = Preemergence, Rate 125 g/ha, scale 0 to 10 (0 no effect, 10 complete control)
[21] = Preemergence, Rate 250 g/ha, scale of 0 to 10 where 0 is no effect and 10 is complete control
[22] = Preemergence, Rate 500 g/ha, scale 0 (no effect) to 10 (complete control)
[23] = Rate 125 g/ha, Postemergence, scale 0 to 10, 0 no effect, 10 complete control
[24] = Rate 500 g/ha, Postemergence, 0 to 10 scale (0 no effect, 10 complete control)
[25] = Rate 125 g/ha, Postemergence section (flood test species), scale 0 to 10, 0 no effect, 10 complete control
[26] = Rate 500 g/ha, Postemergence section of Table B, 0 to 10 scale (0 no effect, 10 complete control)
[27] = flood test, listed under Postemergence, Rate 250 g/ha, scale 0 to 10, 0 no effect, 10 complete control

Cc1ccccc1-n1c(=O)on(C(=O)N(c2cc(OC(C)C)c(Cl)cc2Cl)C(C)C)c1=O [Compound 42]
2: Redroot pigweed plant response rating [7, 24]
1: Morningglory plant response rating [12, 24]
0: Cocklebur plant response rating [1, 17] | Cocklebur plant response rating [1, 18] | Plant response rating, Cocklebur [1, 19] | Plant response rating, Cocklebur [1, 20] | Plant response rating, Cocklebur [1, 21] | Cocklebur plant response rating [1, 22] | Cocklebur plant response rating [1, 23] | Cocklebur plant response rating [1, 24] | Blackgrass plant response rating [2, 17] | Blackgrass plant response rating [2, 18] | Plant response rating, Blackgrass [2, 19] | Plant response rating, Blackgrass [2, 20] | Plant response rating, Blackgrass [2, 21] | Blackgrass plant response rating [2, 22] | Blackgrass plant response rating [2, 23] | Blackgrass plant response rating [2, 24] | Ducksalad plant response rating [3, 17] | Ducksalad plant response rating [3, 25] | Ducksalad plant response rating [3, 26] | Ducksalad plant response rating [3, 27] | Giant foxtail plant response rating [4, 17] | Giant foxtail plant response rating [4, 18] | Plant response rating, Giant foxtail [4, 19] | Plant response rating, Giant foxtail [4, 20] | Plant response rating, Giant foxtail [4, 21] | Giant foxtail plant response rating [4, 22] | Giant foxtail plant response rating [4, 23] | Giant foxtail plant response rating [4, 24] | Barnyardgrass plant response rating [5, 17] | Barnyardgrass plant response rating [5, 25] | Barnyardgrass plant response rating [5, 26] | Barnyardgrass plant response rating [5, 27] | Bedstraw plant response rating [6, 17] | Bedstraw plant response rating [6, 18] | Plant response rating, Bedstraw [6, 19] | Plant response rating, Bedstraw [6, 20] | Plant response rating, Bedstraw [6, 21] | Bedstraw plant response rating [6, 22] | Bedstraw plant response rating [6, 23] | Redroot pigweed plant response rating [7, 17] | Redroot pigweed plant response rating [7, 18] | Plant response rating, Redroot pigweed [7, 19] | Plant response rating, Redroot pigweed [7, 20] | Plant response rating, Redroot pigweed [7, 21] | Redroot pigweed plant response rating [7, 22] | Redroot pigweed plant response rating [7, 23] | Velvetleaf plant response rating [8, 17] | Velvetleaf plant response rating [8, 18] | Plant response rating, Velvetleaf [8, 19] | Plant response rating, Velvetleaf [8, 20] | Plant response rating, Velvetleaf [8, 21] | Velvetleaf plant response rating [8, 22] | Velvetleaf plant response rating [8, 23] | S. Flatsedge plant response rating [9, 17] | S. Flatsedge plant response rating [9, 25] | S. Flatsedge plant response rating [9, 27] | B. signalgrass plant response rating [10, 17] | B. signalgrass plant response rating [10, 18] | Plant response rating, B. signalgrass [10, 19] | Plant response rating, B. signalgrass [10, 20] | Plant response rating, B. signalgrass [10, 21] | B. signalgrass plant response rating [10, 22] | B. signalgrass plant response rating [10, 23] | B. signalgrass plant response rating [10, 24] | Nutsedge plant response rating [11, 17] | Nutsedge plant response rating [11, 18] | Plant response rating, Nutsedge [11, 19] | Plant response rating, Nutsedge [11, 20] | Plant response rating, Nutsedge [11, 21] | Nutsedge plant response rating [11, 22] | Nutsedge plant response rating [11, 23] | Nutsedge plant response rating [11, 24] | Morningglory plant response rating [12, 17] | Morningglory plant response rating [12, 18] | Plant response rating, Morningglory [12, 19] | Plant response rating, Morningglory [12, 20] | Plant response rating, Morningglory [12, 21] | Morningglory plant response rating [12, 22] | Morningglory plant response rating [12, 23] | Wild oats plant response rating [13, 17] | Wild oats plant response rating [13, 18] | Plant response rating, Wild oats [13, 20] | Plant response rating, Wild oats [13, 21] | Wild oats plant response rating [13, 22] | Wild oats plant response rating [13, 23] | Soybean plant response rating [14, 17] | Soybean plant response rating [14, 18] | Plant response rating, Soybean [14, 19] | Plant response rating, Soybean [14, 20] | Plant response rating, Soybean [14, 21] | Soybean plant response rating [14, 22] | Soybean plant response rating [14, 23] | Rape plant response rating [15, 17] | Rape plant response rating [15, 18] | Plant response rating, Rape [15, 19] | Plant response rating, Rape [15, 20] | Plant response rating, Rape [15, 21] | Rape plant response rating [15, 22] | Rape plant response rating [15, 23] | Rape plant response rating [15, 24] | Wheat plant response rating [16, 17] | Wheat plant response rating [16, 18] | Plant response rating, Wheat [16, 19] | Plant response rating, Wheat [16, 20] | Plant response rating, Wheat [16, 21] | Wheat plant response rating [16, 22] | Wheat plant response rating [16, 23]
